A short description of data set [1]: Acute toxicity in mice. Conditions: mouse, in vivo.
The test system of data set [2] is cardiovascular system. The experiment in a line: Effect on the cardiovascular system (side-effects). It is filed as in vivo. The settings on record: comparison in words. An excerpt: Known tricyclic thymoleptics affect the cardiovascular and peripheral autonomic nervous systems causing a wide range of side-effects. Cardiac disturbances and varying degrees of hypotension occur rather frequently and may be very serious.

The nature of data set [3]: Antidepressant daily dose. Conditions: daily doses. It is filed as in vivo. The method, then:
In comparison, daily doses of 200-300 mg of imipramine are recommended.

The conditions of data set [4]: daily doses; cited from earlier work.
For data set [5], the system named is 5HT-uptake. Kind of data set: Antagonism of p-chloroamphetamine (PCA)-induced 5HT-depletion from rat brain (5HT-uptake inhibitory activity). Conditions: for ED50: rat brain. It is filed as in vivo. The source says:
5HT-uptake inhibitory activity
Antagonism of p-chloroamphetamine (PCA)-induced 5HT-depletion from rat brain: […]

Molecules are shown by their SMILES. Counter-ions that a name gives are not always drawn. Like-named read-outs stand apart in the source and are kept apart here.

With `Fc1ccc(C2CCNCC2COc2ccc3c(c2)OCO3)cc1` (single isomer, unassigned) [GF 74, (-)-α-4-(4-Fluorophenyl)-3-(1,3-benzdioxolyl-(3))-oxymethyl piperidine maleate], the LD50 (usually the dose at which mortality reaches 50%) in data set [1] (oral administration) was 500 mg/kg; in data set [1] (sc, subcutaneous injection) it was 845 mg/kg. In addition, the “effect on the cardiovascular system compared with tricyclic thymoleptics” value in data set [2] is “affect the cardiovascular system less than do the most common tricyclic thymoleptics”. For the same compound, the “daily dose active as an antidepressant” value in data set [3] lay within 15 to 25 mg.

Consider `CN(C)CCCN1c2ccccc2CCc2ccccc21` [Imipramine], for which the recommended daily dose in data set [4] is 200 to 300 mg. In addition, the “ED50 p.o., antagonism of PCA-induced 5HT-depletion” value in data set [5] (po, 3 h) is “+”. Further, the 50% effective dose (ED50) (usually the dose that gives a 50% effect, or the effect in half of the subjects) is 44 mg/kg in data set [5] (po, p.o., test drugs administered 2 hours before PCA, read-out: ED50 p.o., antagonism of PCA-induced 5HT-depletion) and 8 mg/kg in data set [5] (sc, test drugs administered s.c. simultaneously with PCA, read-out: ED50 s.c., antagonism of PCA-induced 5HT-depletion).

Source of the values: patent publication US4007196A, “4-Phenylpiperidine compounds” (priority 1973, dated 1977).
